Patent publication US12428395B2, “Heterocyclic compounds as kinase inhibitor and uses thereof” (SPEROGENIX THERAPEUTICS LIMITED, priority 2019, dated 2025)

Target: CHK-1 kinase (Homo sapiens (Human), UniProt O14757)
Assay: CHK-1 Kinase Assay (Z-LYTE based TR-FRET)
Assay type: biochemical
Conditions: for inhibition at 0.1 µM: 0.1 μM compound, read-out: % Inhibition of CHK-1 enzyme activity @ 0.1 μM; for inhibition at 1 µM: 1 μM compound, read-out: % Inhibition of CHK-1 enzyme activity @ 1 μM; for inhibition at 5 µM: 5 μM compound, read-out: % Inhibition of CHK-1 enzyme activity @ 5 μM
Method: IC50 values of compounds for inhibition of CHK-1 kinase or percent inhibition at defined concentrations were determined by Z-LYTE™ based TR-FRET assay. Kinase reactions were performed in a 10 μL volume in low-volume 384-well plates. The concentration of substrate (Ser Thr 19) was maintained at 2 μM in the assay, and the kinase reaction buffer consisted of 50 mM HEPES pH 7.5, 0.01% BRIJ-35, 10 mM MgCl2, 1 mM EGTA, 2 mM DTT. Serially diluted compounds (3-fold) in DMSO (0.5% in final reaction) were incubated with cocktail of CHK-1 kinase (5 ng/ml; Cat #P3040, ThermoFisher), substrate Ser Thr 19, (2 μM; Cat #PV4529, ThermoFisher), ATP (53 μM; Cat #PV3227, ThermoFisher) and buffer. Kinase reactions were allowed to proceed for 1 hour at room temperature after which 5 μL of a 1:256 dilution of Development Reagent A was added. The plate was allowed to incubate at room temperature for 60 minutes before being read on a BMG Pherastar plate reader using the Z-LYTE™ filter block for Z-LYTE™ TR-FRET. The resulting TR-FRET emission ratio was used to calculate percent inhibition by normalizing with the control using the following formula: — [% Inhibition=1−{(% Phosphorylationsample/% Phosphorylationcontrol (0% Inhibition)}·100] For calculation of IC50, the percent inhibition obtained was plotted against the concentration of inhibitor, and the data was fit to a sigmoidal dose-response curve with a variable slope. The IC50 was calculated from the curve.

Sequence of CHK-1 kinase (O14757 whole entry): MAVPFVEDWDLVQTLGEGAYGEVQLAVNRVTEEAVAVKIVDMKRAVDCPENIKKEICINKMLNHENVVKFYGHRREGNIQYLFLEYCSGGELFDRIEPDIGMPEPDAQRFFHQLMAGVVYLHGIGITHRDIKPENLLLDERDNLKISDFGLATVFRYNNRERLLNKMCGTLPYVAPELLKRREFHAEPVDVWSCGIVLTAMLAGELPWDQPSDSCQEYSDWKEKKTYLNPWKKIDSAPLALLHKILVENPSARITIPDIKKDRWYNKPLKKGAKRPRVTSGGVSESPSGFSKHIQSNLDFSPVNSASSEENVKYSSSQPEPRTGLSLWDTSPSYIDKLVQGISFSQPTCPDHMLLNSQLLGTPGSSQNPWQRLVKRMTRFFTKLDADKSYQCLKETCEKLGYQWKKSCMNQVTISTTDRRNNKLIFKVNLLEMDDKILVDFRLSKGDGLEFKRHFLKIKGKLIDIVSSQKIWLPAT

inhibition at 0.1 µM [%] | inhibition at 1 µM [%] | inhibition at 5 µM [%] | IC50 [µM] | SMILES
7 | 18 | 41 |  | COc1ccc(-c2nnc(Nc3cnc(C#N)cn3)cc2NCC2CCNCC2)cc1 [1.23, 5-(6-(4-methoxyphenyl)-5-(piperidin-4-ylmethylamino)pyridazin-3-ylamino)pyrazine-2-carbonitrile]
 |  |  | > 10 | N#Cc1cnc(Nc2cc(OCC3CNCCO3)cnn2)cn1 (centres unmarked) [1.9, 5-(5-(morpholin-2-ylmethoxy)pyridazin-3-ylamino)pyrazine-2-carbonitrile]
10 | 35 | 75 |  | N#Cc1cnc(Nc2cc(NCC3CCNCC3)c(OCC(F)(F)F)nn2)cn1 [1.33, 5-(5-(piperidin-4-ylmethylamino)-6-(2,2,2-trifluoroethoxy)pyridazin-3-ylamino)pyrazine-2-carbonitrile]
13 | 48 | 86 |  | Cn1ccc(-c2nnc(Nc3cnc(C#N)cn3)cc2NCC2CCNCC2)n1 [1.28, 5-(6-(1-methyl-1H-pyrazol-3-yl)-5-(piperidin-4-ylmethylamino)pyridazin-3-ylamino)pyrazine-2-carbonitrile]
19 | 60 | 93 |  | N#Cc1cnc(Nc2cc(NCC3CCOCC3)c(C(N)=O)nn2)cn1 [1.29, 6-(5-cyanopyrazin-2-ylamino)-4-((tetrahydro-2H-pyran-4-yl)methylamino)pyridazine-3-carboxamide]
 |  |  | > 10 | CC(C)(C)OC(=O)N1CCOC(CNc2cc(Nc3cnc(C#N)cn3)nnc2C(F)(F)F)C1 (centres unmarked) [1.5, tert-butyl 2-((6-(5-cyanopyrazin-2-ylamino)-3-(trifluoromethyl)pyridazin-4-ylamino)methyl)morpholine-4-carboxylate]
3 | 5 | 33 |  | N#Cc1cnc(Nc2cc(NCC3CCNCC3)c(-c3ccc(F)cc3)nn2)cn1 [1.21, 5-(6-(4-fluorophenyl)-5-(piperidin-4-ylmethylamino)pyridazin-3-ylamino)pyrazine-2-carbonitrile]
 | 3 | 5 |  | Cn1cc(Nc2cc(NCC3CNCCO3)c(-c3ccccc3)nn2)cn1 (centres unmarked) [1.4, N3-(1-methyl-1H-pyrazol-4-yl)-N5-(morpholin-2-ylmethyl)-6-phenylpyridazine-3,5-diamine]
8 | 3 | 15 |  | CN1CCC(CNc2cnnc(Nc3cnc(C#N)cn3)c2)CC1 [1.10, 5-(5-((1-methylpiperidin-4-yl)methylamino)pyridazin-3-ylamino)pyrazine-2-carbonitrile]
2 | 2 | 34 |  | N#Cc1cnc(Nc2cc(NCC3CCNCC3)c(-c3cccc4[nH]ccc34)nn2)cn1 [1.24, 5-(6-(1H-indol-4-yl)-5-(piperidin-4-ylmethylamino)pyridazin-3-ylamino)pyrazine-2-carbonitrile]
8 | 10 | 42 |  | N#Cc1cnc(Nc2cc(NCC3CCNCC3)c(-c3cccc(N4CCCCC4)c3)nn2)cn1 [1.25, 5-(6-(3-(piperidin-1-yl)phenyl)-5-(piperidin-4-ylmethylamino)pyridazin-3-ylamino)pyrazine-2-carbonitrile]
3 | 12 | 41 |  | N#Cc1cnc(Nc2cc(NCC3CNCCO3)c(C3CC3)nn2)cn1 (centres unmarked) [1.17, 5-(6-cyclopropyl-5-(morpholin-2-ylmethylamino)pyridazin-3-ylamino)pyrazine-2-carbonitrile]
7 | 8 | 23 |  | Cc1nnc(Nc2cnc(C#N)cn2)cc1NCC1CCNCC1 [1.15, 5-(6-methyl-5-(piperidin-4-ylmethylamino)pyridazin-3-ylamino)pyrazine-2-carbonitrile]
 |  |  | 5.81 | N#Cc1cnc(Nc2cc(NCC3CCNCC3)c(C(F)(F)F)nn2)cn1 [1.8, 4-((6-(5-cyanopyrazin-2-ylamino)-3-(trifluoromethyl)pyridazin-4-ylamino)methyl)piperidinium 2,2,2-trifluoroacetate]
6 | 24 | 59 |  | N#Cc1cnc(Nc2cc(NCC3CCNCC3)c(C3CC3)nn2)cn1 [1.18, 5-(6-cyclopropyl-5-(piperidin-4-ylmethylamino)pyridazin-3-ylamino)pyrazine-2-carbonitrile]
8 | 27 | 65 |  | N#Cc1cnc(Nc2cc(NCC3CCNCC3)c(-c3ccc(Oc4ccccc4)cc3)nn2)cn1 [1.22, 5-(6-(4-phenoxyphenyl)-5-(piperidin-4-ylmethylamino)pyridazin-3-ylamino)pyrazine-2-carbonitrile]
0 | 8 | 34 |  | N#Cc1cnc(Nc2cc(NCC3CCNCC3)c(-c3ccc(CO)cc3)nn2)cn1 [1.27, 5-(6-(4-(hydroxymethyl)phenyl)-5-(piperidin-4-ylmethylamino)pyridazin-3-ylamino)pyrazine-2-carbonitrile]
2 | 15 | 45 |  | Cc1nnc(Nc2cnc(C#N)cn2)cc1NCC1CNCCO1 (centres unmarked) [1.14, 5-(6-methyl-5-(morpholin-2-ylmethylamino)pyridazin-3-ylamino)pyrazine-2-carbonitrile]
0 | 9 | 26 |  | COc1cccc(-c2nnc(Nc3cnc(C#N)cn3)cc2NCC2CCNCC2)c1 [1.26, 5-(6-(3-methoxyphenyl)-5-(piperidin-4-ylmethylamino)pyridazin-3-ylamino)pyrazine-2-carbonitrile]
3 | 3 | 15 |  | CN(C)C(=O)c1nnc(Nc2cnc(C#N)cn2)cc1NCC1CCNCC1 [1.32, 6-(5-cyanopyrazin-2-ylamino)-N,N-dimethyl-4-(piperidin-4-ylmethylamino)pyridazine-3-carboxamide]
0 | 11 | 25 |  | CC(C)Oc1nnc(Nc2cnc(C#N)cn2)cc1NCC1CCNCC1 [1.31, 5-(6-isopropoxy-5-(piperidin-4-ylmethylamino)pyridazin-3-ylamino)pyrazine-2-carbonitrile]
28 | 78 | 97 |  | CNC(=O)c1nnc(Nc2cnc(C#N)cn2)cc1NCC1CCOCC1 [1.30, 6-(5-cyanopyrazin-2-ylamino)-N-methyl-4-((tetrahydro-2H-pyran-4-yl)methylamino)pyridazine-3-carboxamide]
9 | 9 | 11 |  | Cn1ccc(-c2nnc(Nc3cnc(C#N)cn3)cc2OCC2CNCCO2)n1 (centres unmarked) [1.13, 5-(6-(1-methyl-1H-pyrazol-3-yl)-5-(morpholin-2-ylmethoxy)pyridazin-3-ylamino)pyrazine-2-carbonitrile]
